System: Smpd3 expression
Assay: Smpd3 expression by RT-qPCR in B16K1 melanoma cells incubated with 5-aza or TSA
Type: cell-based, murine
Experimental: A, B16K1 cells expressing (2+) or not (2−) V5-tagged nSMase 2 were analyzed by Western blot using anti-V5 and anti-β-actin antibodies. B, Neutral SMase activity in B16K1 nSMase 2+ (2+) and nSMase 2− (2−) as well as in mock-transfected B16K1 cells. C, Intracellular ceramide levels in B16K1 nSMase 2+(2+) and nSMase 2− (2−) as well as in mock-tranfected B16K1 cells. Data are expressed as the % of values obtained with mock-transfected B16K1 cells. Values are shown as means±sem of 3 independent experiments (B and C). D, In vitro B16K1 cell growth was evaluated in 10% FCS medium (left panel) or 0% FCS medium ([…]). […] Cells were analysed by Western blot using anti-V5 and anti-β-actin antibodies. […] Data are shown as means±sem of 3 independent experiments. (*: p<0.05; **: p<0.01). G, B16K1 melanoma cells were incubated or not with 1 μM of 5 aza-2 deoxycitidine (5-aza) during 72 hours or with 0.1 μM Trichostatine A (TSA) during the last 16 hours. Smpd3 expression was analysed by RT-qPCR. Data are shown as means±sem of 3 independent experiments.
RNA isolation and qRT-PCR. RNA isolation from cells and exosomes was performed by using the Qiagen RNeasy mini kit and Qiagen miRNeasy kit respectively, according to manufacturer's instructions. […]

Compound | Smpd3 expression (0.1 μM TSA during the last 16 hours) | Smpd3 expression (1 μM 5-aza during 72 hours)
CC(/C=C/C(=O)NO)=C\[C@@H](C)C(=O)c1ccc(N(C)C)cc1 [trichostatin A] | greatly enhanced | 
Nc1ncn([C@@H]2O[C@H](CO)[C@@H](O)[C@H]2O)c(=O)n1 [5-Azacytidine] |  | not
